Experimental data reported in patent US20220153746A1, “NITROGEN OXIDE-DONATING PDE-5 AND/OR PDE-6 INHIBITOR COMPOUNDS, AND USES THEREOF” (ILDONG PHARMACEUTICAL CO., LTD., priority 2020, published 2022).
Read-outs that look alike come from different tables or passages of the source.

Assay: TD Phase (Groups 1 and 3): plasma and ocular tissue concentrations and pharmacokinetics of Compound 18 and its metabolite Compound 4 after once daily ocular instillation of Compound 18 nanosuspension for 7 days
Assay type: in vivo, New Zealand white rabbits
Conditions: for Cmax / Tmax / half-life / AUC(0-t): topical or ocular; for AUC(0-t): read-out: AUC0-8; for Metabolite/parent AUC ratio (Compound 4 vs Compound 18): TD phase
Description: This example illustrates the procedures and results for the levels of Compound 18 and its metabolite Compound 4 in plasma and ocular tissues of normotensive rabbits following ocular instillation of Compound 18 once daily for 7 consecutive days.
Twenty five (25) male New Zealand white rabbits were divided into 5 groups of varying amounts of animals per group.
The Test article, Compound 18 was formulated as a 2% nanosuspension in DI water containing 0.2% PS80 (polyoxyethylenesorbitan, monooleate (Tween 80)) and 0.4% HPMC (hydroxypropylmethylcellulose) at pH 6.77. Referred to herein as “Compound 18 nanosuspension.”
The study consisted of three groups (Groups 1-3) of 19 male rabbits (NZW) that underwent once daily morning ocular installation (1 eyedrop) for 7 consecutive days (Day 0-6). Groups 4-5 each consisted of 3 male rabbits (NZW) that were not dosed.
Blood samples (1 mL) were collected from the jugular vein at the intervals set out below for each group. The samples were then inverted several times following collection and held on wet ice until centrifuged. Samples were centrifuged within 60 minutes of collection under refrigeration (set at 5° C. for 10 minutes at 2000 g.
Group 1 (Pilot Study, terminal blood collection): blood was collected from 3 animals at 1 hour post day 7 dose of Compound 18 nanosuspension.
Group 3 (TD Phase, terminal blood collection): blood was collected from 3 animals at 0.5 hour, 3 animals at 2 hours, 3 animals at 4 hours, and 3 animals at 8 hours post day 7 dose of Compound 18 nanosuspension.
(§1) Group 1 (Pilot Study): 3 animals were terminated at 1 hour post Day 7 dose of Compound 18 nanosuspension. Following blood collection and termination, ocular tissues (aqueous humor, vitreous humor, cornea, iris/ciliary body, lens, optic nerve, retina, sclera/choroid, and trabecular meshwork) were collected from each animal and the tissue weights were recorded. Note: sclera and choroid were collected together. Iris and ciliary body were collected together.
as §1, with “3 (TD Phase):” for “1 (Pilot Study):”, “0.5 hour, 3 animals at 2 hours, 3 animals at 4 hours, and 3 animals at 8 hours” for “1 hour”
Plasma and tissue samples from treated animals (Groups 1-3) were analyzed for Compound 18 and its metabolite Compound 4 concentrations by LC-MS/MS.
Pharmacokinetic analysis was conducted using WinNonlin Version 6.2.1 (Pharsight, Mountain View, Calif.), operating as a validated software system. Noncompartmental analysis was conducted using the extravascular administration model for ocular instillation dosing.
The peak plasma and ocular tissue concentration, time to achieve peak plasma and ocular tissue concentration, half-life, and area under the plasma and ocular tissue concentration-time curve (Cmax, Tmax, T1/2, and AUC) were calculated from the TD phase combined with the pilot study mean animal plasma and ocular tissue concentrations for each sampling time/dose group for Compound 18 and its metabolite Compound 4.
BA Assay: Quantitation Range 0.05 to 100 ng/mL for Compound 18, 0.15 to 100 ng/mL for Compound 4.
3. Pipet 50 μL of each type of pre-spiked ocular tissue samples (AH/VH) for QC samples, 50 μL of incurred aqueous humor, and vitreous humor sample (if applicable) into a 96 well plate.
Ocular Tissues Homogenate Preparation: Incurred rabbit ocular tissues were weighed in Genogrinder tubes (plastic tubes with small beads) at the time of removal from the animal and stored frozen (<−70° C.) until analysis. The rabbit incurred ocular tissues were thawed on wet ice. […]

[1] = male, New Zealand white, rabbit, 0.8 mg/kg/day, optic nerve, Day 7, from mean concentrations
[2] = male, New Zealand white, rabbit, 0.8 mg/kg/day, plasma, Day 7, from mean concentrations
[3] = male, New Zealand white, rabbit, 0.8 mg/kg/day, retina, Day 7, from mean concentrations
[4] = male, New Zealand white, rabbit, 0.8 mg/kg/day, sclera/choroid, Day 7, from mean concentrations
[5] = male, New Zealand white, rabbit, 0.8 mg/kg/day, trabecular meshwork, Day 7, from mean concentrations
[6] = male, New Zealand white, rabbit, 0.8 mg/kg/day, vitreous humor, Day 7, from mean concentrations
[7] = male, New Zealand white, rabbit, Aqueous Humor, Day 7, Compound 18 0.8 mg/kg ocular instillation once daily, Groups 1 and 3
[8] = male, New Zealand white, rabbit, Cornea, Day 7, Compound 18 0.8 mg/kg ocular instillation once daily, Groups 1 and 3
[9] = male, New Zealand white, rabbit, Iris/Ciliary Body, Day 7, Compound 18 0.8 mg/kg ocular instillation once daily, Groups 1 and 3
[10] = male, New Zealand white, rabbit, Lens, Day 7, Compound 18 0.8 mg/kg ocular instillation once daily, Groups 1 and 3
[11] = male, New Zealand white, rabbit, Optic Nerve, Day 7, Compound 18 0.8 mg/kg ocular instillation once daily, Groups 1 and 3
[12] = male, New Zealand white, rabbit, Plasma, Day 7, Compound 18 0.8 mg/kg ocular instillation once daily, Groups 1 and 3
[13] = male, New Zealand white, rabbit, Retina, Day 7, Compound 18 0.8 mg/kg ocular instillation once daily, Groups 1 and 3
[14] = male, New Zealand white, rabbit, Sclera/Choroid, Day 7, Compound 18 0.8 mg/kg ocular instillation once daily, Groups 1 and 3
[15] = male, New Zealand white, rabbit, Trabecular Meshwork, Day 7, Compound 18 0.8 mg/kg ocular instillation once daily, Groups 1 and 3
[16] = male, New Zealand white, rabbit, Vitreous Humor, Day 7, Compound 18 0.8 mg/kg ocular instillation once daily, Groups 1 and 3

CCCc1nn(C)c2c(=O)[nH]c(-c3cc(S(=O)(=O)N4CC(CCCO)C4)ccc3OCC)nc12 [Compound 4, 5-(2-ethoxy-5-((3-(3-hydroxypropyl)azetidin-1-yl)sulfonyl)phenyl)-1-methyl-3-propyl-1,6-dihydro-7H-pyrazolo[4,3-d]pyrimidin-7-one]
Cmax [1]: 40.2 ng/g | Tmax [1]: 1 h | half-life [1]: 2.93 h | Cmax [2]: 1.02 ng/mL | Tmax [2]: 0.5 h | half-life [2]: 0.958 h | AUC(0-t) [2]: 1.57 ng·h/mL | Cmax [3]: 50.9 ng/g | Tmax [3]: 2 h | half-life [3]: 1.93 h | Cmax [4]: 303 ng/g | Tmax [4]: 4 h | half-life [4]: 1.74 h | Cmax [5]: 204 ng/g | Tmax [5]: 1 h | half-life [5]: 2.2 h | Cmax [6]: 2.32 ng/mL | Tmax [6]: 1 h | half-life [6]: 1.72 h | AUC(0-t) [6]: 9.9 ng·h/mL | Cmax [7]: 124 ng/mL | Tmax [7]: 1 h | half-life [7]: 1.95 h | AUC(0-t) [7]: 314 ng·h/mL | Cmax [8]: 3600 ng/g | Tmax [8]: 1 h | half-life [8]: 2.63 h | Cmax [9]: 980 ng/g | Tmax [9]: 1 h | half-life [9]: 2.11 h | Cmax [10]: 18.1 ng/g | Tmax [10]: 1 h | half-life [10]: 2.25 h | Cmax [11]: 40.2 ng/g | Tmax [11]: 1 h | half-life [11]: 2.93 h | Cmax [12]: 1.02 ng/mL | Tmax [12]: 0.5 h | half-life [12]: 0.958 h | AUC(0-t) [12]: 1.57 ng·h/mL | Cmax [13]: 50.9 ng/g | Tmax [13]: 2 h | half-life [13]: 1.93 h | Cmax [14]: 303 ng/g | Tmax [14]: 4 h | half-life [14]: 1.74 h | Cmax [15]: 204 ng/g | Tmax [15]: 1 h | half-life [15]: 2.2 h | Cmax [16]: 2.32 ng/mL | Tmax [16]: 1 h | half-life [16]: 1.72 h | AUC(0-t) [16]: 9.9 ng·h/mL | concentration at 8 h (male, New Zealand white, rabbit, trabecular meshwork, other: ocular instillation, 0.8 mg/kg/day, TD Phase, Group 3, 8 h, Mean, read-out: Final Compound 4 Trabecular Meshwork Conc.): 13.9 ng/g | AUC0-8 (optic nerve, Day 7, from mean concentrations): 159 ng·h/g | Metabolite/parent AUC ratio (Compound 4 vs Compound 18) (optic nerve): 0.133 | AUC0-8 (retina, Day 7, from mean concentrations): 213 ng·h/g | Metabolite/parent AUC ratio (Compound 4 vs Compound 18) (retina): 1.34 | AUC0-8 (sclera/choroid, Day 7, from mean concentrations): 1494 ng·h/g | Metabolite/parent AUC ratio (Compound 4 vs Compound 18) (sclera/choroid): 1.32 | AUC0-8 (trabecular meshwork, Day 7, from mean concentrations): 533 ng·h/g | Metabolite/parent AUC ratio (Compound 4 vs Compound 18) (trabecular meshwork): 18.0
